Source: patent US10202360B2 (CELGENE QUANTICEL RESEARCH, INC., priority 2016, dated 2019)

Molecular target: CREBBP (Homo sapiens (Human), UniProt Q92793)
Assay: In vitro enzyme inhibition assay - CREBBP inhibition (AlphaScreen, biotinylated H4-tetraacetyl peptide)
Type: binding
Procedure, shortened: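 Displacement of 20 nM biotinylated tetraacetyl-H4 peptide from 50 nM E. coli-expressed His-CREBBP, measured by AlphaScreen after bead equilibration for 2 h.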

[1] = Table 28, AlphaScreen, H4-tetraacetyl peptide

CREBBP, sequence (Q92793 1081-1197): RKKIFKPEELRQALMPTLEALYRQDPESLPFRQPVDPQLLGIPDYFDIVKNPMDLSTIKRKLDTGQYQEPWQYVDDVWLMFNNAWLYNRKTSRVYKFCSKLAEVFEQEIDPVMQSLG

Compound | IC50 [1] [nM] | IC50 (Table 29) [nM]
Cc1ccc(F)c(Oc2nc(NS(=O)(=O)CCC(C)C)cc(-c3ccc(=O)n(C)c3)n2)c1Cl [Example 265, 3-Methyl-butane-1-sulfonic acid [2-(2-chloro-6-fluoro-3-methyl-phenoxy)-6-(1-methyl-6-oxo-1,6-dihydro-pyridin-3-yl)-pyrimidin-4-yl]-amide] | < 500 | 
CCS(=O)(=O)Nc1nc(Oc2c(C)cccc2F)nc(-c2ccc(=O)n(C)c2)n1 [Example 175, Ethanesulfonic acid [4-(2-fluoro-6-methyl-phenxoy)-6-(1-methyl-6-oxo-1,6-dihydro-pyridin-3-yl)-[1,3,5]triazin-2-yl]-amide] | < 500 | 
Cc1cc(-c2cc(NS(=O)(=O)C(C)C)nc(Oc3cccc4c3ccn4C)n2)cn(C)c1=O [Example 76, N-(6-(1,5-dimethyl-6-oxo-1,6-dihydropyridin-3-yl)-2-((1-methyl-1H-indol-4-yl)oxy)pyrimidin-4-yl)propane-2-sulfonamide] | < 500 | 
CC(C)S(=O)(=O)Nc1cc(-c2ccc(=O)n(C)c2)nc(Oc2c(F)cccc2F)n1 [Example 340, N-(2-(2,6-difluorophenoxy)-6-(1-methyl-6-oxo-1,6-dihydropyridin-3-yl)pyrimidin-4-yl)propane-2-sulfonamide] | < 500 | 
CCCS(=O)(=O)Nc1cc(Oc2c(C#N)cccc2OC)nc(-c2cc(C)c(=O)n(C)c2)n1 [Example 130, Propane-1-sulfonic acid [6-(2-cyano-6-methoxy-phenoxy)-2-(1,5-dimethyl-6-oxo-1,6-dihydro-pyridin-3-yl)-pyrimidin-4-yl]-amide] | < 500 | 
CCCCNc1cc(-c2ccc(=O)n(C)c2)nc(Oc2c(C)cccc2C#N)n1 [Example 316, 2-[4-Butylamino-6-(1-methyl-6-oxo-1,6-dihydro-pyridin-3-yl)-pyrimidin-2-yloxy]-3-methyl-benzonitrile] | < 500 | 
Cc1cc(-c2cc(NS(=O)(=O)C(C)(C)C)nc(Oc3ccc(F)cc3F)n2)cn(C)c1=O [Example 65, N-(2-(2,4-difluorophenoxy)-6-(1,5-dimethyl-6-oxo-1,6-dihydropyridin-3-yl)pyrimidin-4-yl)-2-methylpropane-2-sulfonamide] | < 500 | 
CCc1cccc(F)c1Oc1nc(NS(=O)(=O)[C@@H](C)CC)cc(-c2ccc(=O)n(C)c2)n1 [Example 215, (2S)-Butane-2-sulfonic acid [2-(2-ethyl-6-fluoro-phenoxy)-6-(1-methyl-6-oxo-1,6-dihydro-pyridin-3-yl)-pyrimidin-4-yl]-amide] | < 500 | 
Cc1cc(F)ccc1Oc1nc(NS(=O)(=O)C(C)C)cc(-c2cc(C)c(=O)n(C)c2)n1 [Example 67, N-(6-(1,5-dimethyl-6-oxo-1,6-dihydropyridin-3-yl)-2-(4-fluoro-2-methylphenoxy)pyrimidin-4-yl)propane-2-sulfonamide] | < 500 | 
CCCCn1cc(-c2cc(NS(=O)(=O)C(C)C)nc(Oc3ccc(F)cc3F)n2)cc(C)c1=O [Example 46, Propane-2-sulfonic acid [6-(1-butyl-5-methyl-6-oxo-1,6-dihydro-pyridin-3-yl)-2-(2,4-difluoro-phenoxy)-pyrimidin-4-yl]-amide] | > 5000 | 
CCCS(=O)(=O)Nc1cc(-c2ccc(=O)n(C)c2)nc(Oc2c(C)cccc2F)n1 [Example 120, Propane-1-sulfonic acid [2-(2-fluoro-6-methyl-phenoxy)-6-(1-methyl-6-oxo-1,6-dihydro-pyridin-3-yl)-pyrimidin-4-yl]-amide] | < 500 | 
CCCCS(=O)(=O)Nc1cc(-c2ccc(=O)n(C)c2)nc(Oc2c(F)ccc(F)c2C)n1 [Example 350, N-(2-(3,6-difluoro-2-methylphenoxy)-6-(1-methyl-6-oxo-1,6-dihydropyridin-3-yl)pyrimidin-4-yl)butane-1-sulfonamide] | < 500 | 
CC[C@H](C)S(=O)(=O)Nc1cc(-c2ccc(=O)n(C)c2)nc(Oc2c(C)cccc2Cl)n1 [Example 205, Butane-(2S)-sulfonic acid [2-(2-chloro-6-mehtyl-phenoxy)-6-(1-methyl-6-oxo-1,6-dihydro-pyridin-3-yl)-pyrimidin-4-yl]-amide] | < 500 | 
Cc1cccc(C#N)c1Oc1nc(NS(=O)(=O)CCCF)cc(-c2ccc(=O)n(C)c2)n1 [Example 123, 3-Fluoro-propane-1-sulfonic acid [2-(2-cyano-6-methyl-phenoxy)-6-(1-methyl-6-oxo-1,6-dihydro-pyridin-3-yl)-pyrimidin-4-yl]-amide] | < 500 | 
CCS(=O)(=O)Cc1cc(-c2cc(C)c(=O)n(C)c2)nc(Oc2ccc(F)cc2F)n1 [Example 96, 5-[2-(2,4-Difluoro-phenoxy)-6-ethanesulfonylmethyl-pyrimidin-4-yl]-1,3-dimethyl-1H-pyridin-2-one] | < 500 | 
CCCCS(=O)(=O)Nc1cc(-c2ccc(=O)n(C)c2)nc(Oc2c(F)cccc2CC)n1 [Example 337, N-(2-(2-ethyl-6-fluorophenoxy)-6-(1-methyl-6-oxo-1,6-dihydropyridin-3-yl)pyrimidin-4-yl)butane-1-sulfonamide] | < 500 | 

Compound | IC50 [1] [nM] | IC50 (Table 29) [nM]
CC[C@@H](C)S(=O)(=O)Nc1cc(-c2ccc(=O)n(C)c2)nc(Oc2c(F)cccc2OC)n1 [Example 208, Butane-(2R)-sulfonic acid [2-(2-fluoro-6-methoxy-phenoxy)-6-(1-methyl-6-oxo-1,6-dihydro-pyridin-3-yl)-pyrimidin-4-yl]-amide] | < 500 | 
CCCCS(=O)(=O)Nc1cc(-c2cc(C)c(=O)n(C)c2)nc(Oc2ccc(F)cc2F)n1 [Example 64, N-(2-(2,4-difluorophenoxy)-6-(1,5-dimethyl-6-oxo-1,6-dihydropyridin-3-yl)pyrimidin-4-yl)butane-1-sulfonamide] | < 500 | 
Cc1cccc(F)c1Oc1nc(-c2cc(C)c(=O)n(C)c2)cc(N(C)Cc2ccccc2)n1 [Example 297, 5-[6-(Benzyl-methyl-amino)-2-(2-fluoro-6-methyl-phenoxy)-pyrimidin-4-yl]-1,3-dimethyl-1H-pyridin-2-one] | < 500 | 
CCCS(=O)(=O)Nc1cc(Oc2c(C)cccc2Cl)nc(-c2cc(C)c(=O)n(C)c2)n1 [Example 107, Propane-1-sulfonic acid [6-(2-chloro-6-methyl-phenoxy)-2-(1,5-dimethyl-6-oxo-1,6-dihydro-pyridin-3-yl)-pyrimidin-4-yl]-amide] | < 500 | 
CCCCS(=O)(=O)Nc1cc(-c2cc(C)c(=O)n(C)c2)nc(Oc2cc(C)ccc2C#N)n1 [Example 36, Butane-1-sulfonic acid [2-(2-cyano-5-methyl-phenoxy)-6-(1,5-dimethyl-6-oxo-1,6-dihydro-pyridin-3-yl)-pyrimidin-4-yl]-amide] | < 500 | 
Cc1sc2c(c1C)C(c1ccc(Cl)cc1)=N[C@@H](CC(=O)OC(C)(C)C)c1nnc(C)n1-2 [JQ-1, tert-butyl (S)-2-(4-(4-chlorophenyl)-2,3,9-trimethyl-6H-thieno[3,2-f][1,2,4]triazolo[4,3-a][1,4]diazepin-6-yl)acetate, reference compound] |  | > 5000
CCCCS(=O)(=O)Nc1cc(-c2cc(Cl)c(=O)n(C)c2)nc(Oc2c(C)cccc2F)n1 [Example 122, Butane-1-sulfonic acid [6-(5-chloro-1-methyl-6-oxo-1,6-dihydro-pyridin-3-yl)-2-(2-fluoro-6-methyl-phenoxy)-pyrimidin-4-yl]-amide] | < 500 | 
CCS(=O)(=O)Nc1cc(-c2ccc(=O)n(C)c2)nc(Oc2c(C)cccc2F)n1 [Example 116, Ethanesulfonic acid [2-(2-fluoro-6-methyl-phenoxy)-6-(1-methyl-6-oxo-1,6-dihydro-pyridin-3-yl)-pyrimidin-4-yl]-amide] | < 500 | 
CC[C@H](C)S(=O)(=O)Nc1cc(-c2ccc(=O)n(C)c2)nc(Oc2c(C)cccc2C2CC2)n1 [Example 211, Butane-(2S)-sulfonic acid [2-(2-cylcopropyl-6-methyl-phenoxy)-6-(1-methyl-6-oxo-1,6-dihydro-pyridin-3-yl)-pyrimidin-4-yl]-amide] | < 500 | 
CCCS(=O)(=O)Nc1nc(Oc2c(C)cccc2F)nc(-c2cc(C)c(=O)n(C)c2)n1 [Example 173, Propane-1-sulfonic acid [4-(1,5-dimethyl-6-oxo-1,6-dihydro-pyridin-3-yl)-6-(2-fluoro-6-methyl-phenoxy)-[1,3,5]triazin-2-yl]-amide] | < 500 | 
CCS(=O)(=O)Nc1cc(-c2ccc(=O)n(C)c2)nc(OC2CCCCC2)n1 [Example 246, Ethanesulfonic acid [2-cylcohexyloxy-6-(1-methyl-6-oxo-1,6-dihydro-pyridin-3-yl)-pyrimidin-4-yl]-amide] | < 500 | 
Cc1cccc(F)c1Oc1nc(N)cc(-c2cc(C)c(=O)n(C)c2)n1 [Example 294, 5-[6-Amino-2-(2-fluoro-6-methyl-phenoxy)-pyrimidin-4-yl]-1,3-dimethyl-1H-pyridin-2-one] | < 500 | 
Cn1cc(-c2cc3nc(n2)Oc2cc(ccc2Cl)OCC=CCCS(=O)(=O)N3)ccc1=O [Example 360, 5-(36-chloro-10,10-dioxido-2,4-dioxa-10-thia-11-aza-1(2,4)-pyrimidina-3(1,3)-benzenacycloundecaphan-6-en-1^6-yl)-1-methylpyridin-2(1H)-one] | < 500 | 
CCCCS(=O)(=O)Nc1cc(-c2cc(C)c(=O)n(C)c2)nc(Oc2c(C)nn(CC)c2C)n1 [Example 128, Butane-1-sulfonic acid [6-(1,5-dimethyl-6-oxo-1,6-dihydro-pyridin-3-yl)-2-(1-ethyl-3,5-dimethyl-1H-pyrazol-4-yloxy)-pyrimidin-4-yl]-amide] | < 500 | 
CCCCS(=O)(=O)Nc1cc(-c2cc(C)c(=O)n(C)c2)nc(Oc2c(C)nn(C)c2C)n1 [Example 88, N-(6-(1,5-dimethyl-6-oxo-1,6-dihydropyridin-3-yl)-2-((1,3,5-trimethyl-1H-pyrazol-4-yl)oxy)pyrimidin-4-yl)butane-1-sulfonamide] | < 500 | 
Cc1cccc(F)c1Oc1nc(NCc2ccccc2)cc(-c2cc(C)c(=O)n(C)c2)n1 [Example 296, 5-[6-Benzylamino-2-(2-fluoro-6-methyl-phenoxy)-pyrimidin-4-yl]-1,3-dimethyl-1H-pyridin-2-one] | < 500 | 
